Assay results from publication PMC11289882, “Site-directed allostery perturbation to probe the negative regulation of hypoxia inducible factor-1α” (RSC Chemical Biology, 2024).
Like-named read-outs stand apart in the source and are kept apart here. Non-standard residues stand in square brackets, D forms with d. Residues, ends and D or L forms follow the SMILES beside them. β3hE = N[C@@H](CCC(=O)O)CC(=O)O; β3hQ = NC(=O)CC[C@H](N)CC(=O)O; β3hD = NC(CC(=O)O)CC(=O)O

What was measured:
[1] = molecular target: CBP bound Alexa594-CITED2; set-up: method as in 3 sources, one per row (each row's own in cited_ref): ref 1 (a number printed in a supplementary file, which may have a reference list of its own: not looked up in the article's list) ||| ref 3 (a number printed in a supplementary file, which may have a reference list of its own: not looked up in the article's list) ||| ref 4 (a number printed in a supplementary file, which may have a reference list of its own: not looked up in the article's list); settings: FA titration against CBP bound Alexa594-CITED2; read-out: Direct binding to p300/CBP, KD, apparent; cited from earlier work
[2] = molecular target: CBP bound Alexa594-HIF-1α; set-up: method as in 3 sources, one per row (each row's own in cited_ref): ref 1 (a number printed in a supplementary file, which may have a reference list of its own: not looked up in the article's list) ||| ref 3 (a number printed in a supplementary file, which may have a reference list of its own: not looked up in the article's list) ||| ref 4 (a number printed in a supplementary file, which may have a reference list of its own: not looked up in the article's list); settings: FA titration against CBP bound Alexa594-HIF-1α; read-out: Competition with HIF-1α, KD, apparent; cited from earlier work
p300/CBP [3] = molecular target: p300/CBP; set-up: method as in ref 2 (a number printed in a supplementary file, which may have a reference list of its own: not looked up in the article's list); settings: ITC, 68% confidence intervals in brackets; read-out: Direct binding to p300/CBP, KD; cited from earlier work
p300-HIF-1α complex = molecular target: p300-HIF-1α complex; set-up: method as in ref 2 (a number printed in a supplementary file, which may have a reference list of its own: not looked up in the article's list); settings: ITC titration against p300-HIF-1α complex, 68% confidence intervals in brackets; read-out: Competition with HIF-1α, KD, apparent; cited from earlier work
p300–Flu-HIF-1α = molecular target: T1, p300–Flu-HIF-1α (Homo sapiens, UniProt Q09472); assay: Fluorescence anisotropy competition against p300–Flu-HIF-1α; type: binding; settings: 50 nM p300_330–420, 25 nM Flu-HIF-1α786–826 tracer, 40 mM Na-phosphate, 100 mM NaCl, 1 mM DTT, 0.01% Triton-X, pH 7.4, 10 min at 35 °C; fixed KD = 64 nM for tracer; three repeats; read-out: Kd,app FA competition against p300–Flu-HIF-1α
T1 construct: from residues 330-420 (used for FA and ITC experiments); GST (N, cleaved yes); made in house; host or cells: p300: E. coli BL21 pLysS (pGEX-4T-1); tracer peptide: solid-phase synthesis
T1 sequence (Q09472 330-420): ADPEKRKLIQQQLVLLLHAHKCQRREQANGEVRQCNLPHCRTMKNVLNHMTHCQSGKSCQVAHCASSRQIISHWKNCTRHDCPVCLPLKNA

[4] = molecular target: T2, p300_330–420 (TAZ1 domain) (Homo sapiens, UniProt Q09472); assay: ITC direct titration to p300; type: binding; settings: 35 °C
T2 construct: from residues 330-420 (used for FA and ITC experiments); GST (N, cleaved yes); made in house; host or cells: E. coli BL21 pLysS (pGEX-4T-1)
T2 sequence (Q09472 330-420): as above

p300–HIF-1α complex = assay: NMR competition, p300 with equimolar HIF-1α and CITED2 peptide (1H–15N HSQC); type: binding, human; settings: 13C,15N-p300_330–424, 1.2 eq of each peptide, 10 mM Tris pH 6.9, 50 mM NaCl, 1 mM DTT, 298 K
Procedure: To investigate the reversibility of the competition, samples containing p300 with equimolar amounts of HIF-1α and CITED2_218–256 or CITED2ΔN were prepared. […] (Table S1, ESI ^†). […]
a = KHIF + KCIT + [HIF]t + [CIT]t − [P]t (16)
b = KHIFKCIT + KHIF([CIT]t − [P]t) + KCIT([HIF]t − [P]t) (17)
KHIF = dissociation constant for Flu-HIF-1α, KCIT = dissociation constant for the competitor CITED2 or variant, [CIT]t = total concentration of the competitor CITED2 or variant, [P]t = total concentration of […]
Fitted parameters were: KHIF, KCIT, [HIF]t, [P]t, rP:HIF, rHIF from which KHIF, rP:HIF, rHIF, [HIF]t were kept constant during fitting. KHIF, rP:HIF, rHIF was determined in a separate experiment using HIF-1α776-826 as a competitor
(Fig. S3) [HIF]t was determined using fluorescence intensity measurements relative to a fluorescein calibration curve. [P]t was kept as a floating parameter to account for incompetent protein fraction.
Anisotropy values were normalized and represented as ligand-bound (Lb) values (Eq. 19.) L = (r − rHIF) ∗ [HIF] (19) […]
into three samples: to the first CITED2224-256 was added, to the second CITED2218-256 was added in 1.2 equivalent relative to p300 concentration, and to the third, same volume of buffer was added, and concentrated down to final sample volume. Concentrations were determined based on UV absorbance at 280 nm for p300 and CITED2 variants and at 205 nm for HIF-1α. […]

p300/CBP [5] = molecular target: p300/CBP; set-up: method as in ref 1 (a number printed in a supplementary file, which may have a reference list of its own: not looked up in the article's list); settings: bio-layer interferometry; read-out: Direct binding to p300/CBP, KD; cited from earlier work
[6] = 5 µM p300_330–420 in cell, 60 µM ligand in syringe, 40 mM Na-phosphate pH 7.5, 100 mM NaCl, 1 mM DTT, global fit with ternary intermediate model, 68% confidence intervals in brackets, read-out: Direct binding to p300, K d

Row | Compound | Kd (p300/CBP [3]) [nM] | Kd (p300-HIF-1α complex) [nM] | Kd (p300–Flu-HIF-1α) [nM] | other results
1 | CITED2216-246: CITED2 residues 216–246, previously reported (NVIDTDFIDEEVLMSLVIEMGLDRIKELPEL; UniProt Q99967 216-246, looked up, fragment) | – | – | – | Kd [1]: 5000 ± 1000 nM; Kd [2]: 210 ± 20 nM
2 | HIF-1α786-826: HIF-1α residues 786–826 | 43 | – | – | –
3 | CITED2216-248: CITED2 residues 216–248, previously reported (NVIDTDFIDEEVLMSLVIEMGLDRIKELPELWL; UniProt Q99967 216-248, looked up, fragment) | 303 | 47 | – | –
4 | CC[C@H](C)[C@H](NC(=O)[C@@H]1CCCN1C(=O)[C@H](C)NC(=O)[C@H](CC(N)=O)NC(=O)[C@@H](NC(=O)[C@H](CCC(=O)O)NC(=O)[C@H](CS)NC(=O)[C@H](CC(=O)O)NC(=O)[C@H](Cc1ccc(O)cc1)NC(=O)[C@H](CO)NC(=O)[C@@H](NC(=O)[C@H](CC(C)C)NC(=O)[C@H](CCC(N)=O)NC(=O)[C@@H]1CCCN1C(=O)[C@H](CC(C)C)NC(=O)CNC(=O)[C@H](CO)NC(=O)[C@H](CCC(=O)O)NC(=O)[C@H](CC(=O)O)NC(=O)[C@H](CCSC)NC(=O)[C@H](CO)NC(=O)[C@H](CCC(N)=O)NC(=O)CNC(=O)[C@H](CC(C)C)NC(=O)[C@H](CC(C)C)NC(=O)[C@H](CCCNC(=N)N)NC(=O)[C@H](CS)NC(=O)[C@H](C)NC(=O)[C@H](CC(C)C)NC(=O)[C@H](CC(=O)O)NC(=O)[C@H](CO)NC(C)=O)[C@@H](C)O)C(C)C)C(=O)N[C@@H](CCC(N)=O)C(=O)NCC(=O)N[C@@H](CO)C(=O)N[C@@H](CCCNC(=N)N)C(=O)N[C@@H](CC(N)=O)C(=O)N[C@@H](CC(C)C)C(=O)N[C@@H](CC(C)C)C(=O)N[C@@H](CCC(N)=O)C(=O)NCC(=O)N[C@@H](CCC(=O)O)C(=O)N[C@@H](CCC(=O)O)C(=O)N[C@@H](CC(C)C)C(=O)N[C@@H](CC(C)C)C(=O)N[C@@H](CCCNC(=N)N)C(=O)N[C@@H](C)C(=O)N[C@@H](CC(C)C)C(=O)N[C@@H](CC(=O)O)C(=O)N[C@@H](CCC(N)=O)C(=O)N[C@H](C(=O)N[C@@H](CC(N)=O)C(N)=O)C(C)C [HIF-1α776–826] | – | – | 57 ± 4 | Kd ([4]; 5 µM protein in cell, 60 µM peptide in syringe, 40 mM Na-phosphate, 100 mM NaCl, 1 mM DTT pH 7.4, average of three independent measurements, read-out: KD of HIF-1α776-826 binding to p300): 50 ± 8 nM
5 | CITED2_224–259: CITED2 residues 224–259, longer C terminus, without N-terminal tail (DEEVLMSLVIEMGLDRIKELPELWLGQNEFDFMTDF; UniProt Q99967 224-259, looked up, fragment) | 9 | 12 | – | Species observed in sample with equimolar HIF-1α and CITED2 peptide (reversibility of competition) (p300–HIF-1α complex): did not influence competition efficiency or unidirectionality
6 | CC[C@H](C)[C@H](NC(C)=O)C(=O)N[C@@H](CC(=O)O)C(=O)N[C@H](C(=O)N[C@@H](CC(=O)O)C(=O)N[C@@H](Cc1ccccc1)C(=O)N[C@H](C(=O)N[C@@H](CC(=O)O)C(=O)N[C@@H](CCC(=O)O)C(=O)N[C@@H](CCC(=O)O)C(=O)N[C@H](C(=O)N[C@@H](CC(C)C)C(=O)N[C@@H](CCSC)C(=O)N[C@@H](CO)C(=O)N[C@@H](CC(C)C)C(=O)N[C@H](C(=O)N[C@H](C(=O)N[C@@H](CCC(=O)O)C(=O)N[C@@H](CCSC)C(=O)NCC(=O)N[C@@H](CC(C)C)C(=O)N[C@@H](CC(=O)O)C(=O)N[C@@H](CCCNC(=N)N)C(=O)N[C@H](C(=O)N[C@@H](CCCCN)C(=O)N[C@@H](CCC(=O)O)C(=O)N[C@@H](CC(C)C)C(=O)N1CCC[C@H]1C(=O)N[C@@H](CCC(=O)O)C(=O)N[C@@H](CC(C)C)C(=O)N[C@@H](Cc1c[nH]c2ccccc12)C(=O)N[C@@H](CC(C)C)C(=O)NCC(=O)N[C@@H](CCC(N)=O)CC(=O)N[C@@H](CC(N)=O)C(=O)N[C@@H](CCC(=O)O)CC(=O)N[C@@H](Cc1ccccc1)C(=O)N[C@@H](CC(=O)O)CC(=O)N[C@@H](Cc1ccccc1)C(=O)N[C@@H](CCSC)C(N)=O)[C@@H](C)CC)[C@@H](C)CC)C(C)C)C(C)C)[C@@H](C)CC)[C@@H](C)O [compound 4] (Ac-IDTDFIDEEVLMSLVIEMGLDRIKELPELWLG[β3hQ]N[β3hE]F[β3hD]FM-NH2) | – | – | 1.7 ± 0.7 | Kd [4, 6]: 17 nM
7 | CITED2216-269: CITED2 residues 216–269, previously reported (NVIDTDFIDEEVLMSLVIEMGLDRIKELPELWLGQNEFDFMTDFVCKQQPSRVS; UniProt Q99967 216-269, looked up, fragment) | 26 | 1.1 | – | Kd [1]: 10 ± 1 nM; Kd [2]: 0.2 ± 0.1 nM; Kd (p300/CBP [5]): 9 ± 2 nM
8 | Ac-DEEVLMSLVIEMGLDRIKELPELWLGQNEFDFM-NH2 [CITED2ΔN] | – | – | 86 ± 5 | Kd [4, 6]: 51 nM
